Experiment [1] deals with T1, recombinant human AMPK complex 1 (containing α1β1γ1) (Homo sapiens, UniProt Q13131+Q9Y478).
T1 construct: made in house; host or cells: Spodoptera frugiperda Sf21 cells, baculovirus (pBacPak9 clones, triple infection)
The experiment in a line: AMPKSAMSF in vitro AMPK activation assay. The experiment is classed as biochemical. Particulars: recombinant human AMPK complex 1 (α1β1γ1); for Emax: 10-point titration, read-out: % Maximum AMP Activation of human AMPK Complex 1; for EC50: inflection point reflecting 50% of the maximum activation. As for the experimental part: The recombinant human AMPK complex 1 (containing α1β1γ1) was obtained from baculovirus expression system. Recombinant viruses were generated by cotransfection of AMPK/pBacPak9 clones with Baculogold baculovirus DNA (Pharmingen) in spodoptera frugiperda 21 cells according to the manufacturer's instructions. Each round of virus amplification was performed for 5 days in Grace's medium containing 10% serum. Virus that had been subjected to three rounds of amplification was used for all protein production procedures. To express the AMPK complex, sf21 cells were adapted to serum free medium (SF900 II, Invitrogen) by sequential dilution from serum containing stocks into SF9001I medium and maintained in shaker flasks at 90 rpm at 27° C. The recombinant AMPK enzyme complex was produced by triple infection, one recombinant virus for each of the subunits, in sf21 cells under serum free conditions. Cells were infected in log phase, 1×10^6 cells/ml, at a multiplicity of infection of […]. Cells were harvested by centrifugation at 10,000×g for 15 minutes after 72 hours of infection with viruses. The insect cell pellet from 2 liters of culture was resuspended in 50 ml lysis buffer (20 mM Tris-HCl, 50 mM NaCl, 50 mM NaF, 30 mM Na PPi, 0.25 M sucrose, 10 mM ZnCl2, 2 mM DTT, 0.4 mg/ml digitonin) and subjected to two cycles of freeze-thaw lysis in a dry-ice ethanol bath. Insoluble material was removed by centrifugation at 10,000×g and the supernatant was fractionated with use of polyethylene glycol (PEG). The protein fraction precipitating between 2.5 and 6% PEG was used for further purification using a Blue-Sepharose step (Zhou et al, J. Clin. Invest. 108, 1167-1174, 2001).
The in vitro AMPK activation assay is performed in a volume of 30 μl in a 384-well plate. Enzyme reactions were assembled in the microtiter plate by adding 15 μl of 2× enzyme in assay buffer (20 mM HEPES, pH 7.3, 5 mM MgCl2, 3 mM DTT, 0.01% Brij 35 and CamK Kinase, to activate AMPK) to wells which contained either DMSO or compound. The reaction was initiated with the addition of 15 μl 2× substrate mixture containing 200 μM ATP, and 3.0 μM fluorescently labeled SAMS (5-FAM-HMRSAMSGLHLVKRR-COOH) in assay buffer. After 45-minute incubation at 25° C., the reaction was stopped by the addition of 70 μl stop buffer (100 mM HEPES, pH 7.3, 40 mM EDTA, 0.015% Brij 35). Phosphorylated 5-FAM SAMS product is assessed using a Caliper EZ Reader LabChip microfluidics reader. Product conversion is determined by calculating the peak heights of the substrate and product and reporting the product/(product+substrate) peak ratio. The 10-point titration data were expressed as % maximum AMP activation. The results were plotted using 4 parameter fit and the inflection point reflecting 50% of the maximum activation was reported as the EC50.

Experiment [2] has as its system obese Zucker (fa/fa) rats. Particulars: 7 week administration; cited from earlier work.
The subject of another experiment is ob/ob and db/db mice. Particulars: cited from earlier work.
Experiment [3] concerns rats displaying characteristics of insulin resistance syndrome. The conditions noted are these: rat, in vivo; cited from earlier work.

T1 sequence (Q13131 whole entry): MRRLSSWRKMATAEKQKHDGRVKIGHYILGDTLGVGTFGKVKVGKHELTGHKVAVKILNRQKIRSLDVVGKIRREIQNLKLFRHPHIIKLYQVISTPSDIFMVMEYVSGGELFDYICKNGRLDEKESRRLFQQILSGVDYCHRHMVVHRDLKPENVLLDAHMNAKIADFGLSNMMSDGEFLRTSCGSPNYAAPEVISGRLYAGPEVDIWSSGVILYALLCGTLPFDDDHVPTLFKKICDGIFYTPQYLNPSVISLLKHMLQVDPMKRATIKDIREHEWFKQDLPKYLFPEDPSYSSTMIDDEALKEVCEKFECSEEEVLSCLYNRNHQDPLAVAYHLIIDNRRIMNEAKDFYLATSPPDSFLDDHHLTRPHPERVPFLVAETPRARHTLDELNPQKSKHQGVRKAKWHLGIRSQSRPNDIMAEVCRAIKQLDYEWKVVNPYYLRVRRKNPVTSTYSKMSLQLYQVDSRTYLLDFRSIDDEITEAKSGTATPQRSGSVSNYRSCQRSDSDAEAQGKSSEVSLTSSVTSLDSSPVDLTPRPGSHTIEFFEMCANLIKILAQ
T1 sequence (Q9Y478 whole entry): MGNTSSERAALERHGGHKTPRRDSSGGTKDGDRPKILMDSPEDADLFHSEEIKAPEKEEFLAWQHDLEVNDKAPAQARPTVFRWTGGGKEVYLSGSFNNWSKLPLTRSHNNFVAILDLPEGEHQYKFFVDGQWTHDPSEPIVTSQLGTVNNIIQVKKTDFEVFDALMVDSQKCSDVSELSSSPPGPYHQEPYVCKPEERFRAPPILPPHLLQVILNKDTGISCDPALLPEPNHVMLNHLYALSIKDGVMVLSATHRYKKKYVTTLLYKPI
T1 sequence (P54619 whole entry partner): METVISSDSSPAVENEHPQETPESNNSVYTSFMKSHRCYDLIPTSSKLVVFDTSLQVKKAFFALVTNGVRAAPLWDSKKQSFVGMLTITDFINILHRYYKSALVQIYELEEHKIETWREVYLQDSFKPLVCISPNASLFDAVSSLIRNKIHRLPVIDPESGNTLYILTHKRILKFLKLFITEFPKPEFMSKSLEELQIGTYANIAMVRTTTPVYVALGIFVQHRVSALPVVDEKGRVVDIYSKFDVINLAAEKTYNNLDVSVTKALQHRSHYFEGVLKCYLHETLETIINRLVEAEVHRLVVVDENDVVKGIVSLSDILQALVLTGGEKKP

As a reminder, the EC50 is the midpoint of the concentration-response curve. Consider `CC(C)(O)Cc1cnn(-c2ccc(-c3ccc(-c4nc5nc(O[C@@H]6CO[C@H]7[C@@H]6OC[C@H]7O)[nH]c5cc4Cl)cc3)nc2)c1` [Example 202, (3R,3aR,6R,6aR)-6-[[6-chloro-5-[4-[5-[4-(2-hydroxy-2-methyl-propyl)pyrazol-1-yl]-2-pyridyl]phenyl]-1H-imidazo[4,5-b]pyridin-2-yl]oxy]-2,3,3a,5,6,6a-hexahydrofuro[3,2-b]furan-3-ol], for which, in experiment [1], the Emax stood at 372% and the EC50 was found to be 1 nM.

Consider `OCC1(CO)CC(Oc2nc3nc(-c4ccc(-c5ccccc5)cc4)c(Cl)cc3[nH]2)C1` [Example 111], for which, in experiment [1], the Emax was found to be 813% and the EC50 was determined as 28 nM.

On to `OC[C@H]1OC[C@H](Oc2nc3nc(-c4ccc(-c5ccccc5)cc4)c(Cl)cc3[nH]2)C[C@@H]1O` [Example 140, (2R3S,5R)-5-[[6-chloro-5-(4-phenylphenyl)-1H-imidazo[4,5-b]pyridin-2-yl]oxy]-2-(hydroxymethyl)tetrahydropyran-3-ol], for which, in experiment [1], the Emax turned out to be 668% and the EC50 was 38 nM.

With `O=C(O)C1CCC(Oc2nc3nc(-c4ccc(N5CCCC5)cc4)c(Cl)cc3[nH]2)CC1` (centres unmarked) [Example 30], the Emax in experiment [1] turned out to be 852%.

As to `NC(=O)c1ncn([C@@H]2O[C@H](CO)[C@@H](O)[C@H]2O)c1N` [AICAR], in experiment [2], the HDL cholesterol entry was “increase in HDL cholesterol”; the “glucose metabolism as assessed by an oral glucose tolerance test” value is recorded as “normalization of glucose metabolism”; the “plasma triglycerides and free fatty acids” value is “reduction in plasma triglycerides and free fatty acids”. The glucose homeostasis entry with ob/ob and db/db mice (insulin-resistant diabetic (ob/ob) mice) was “improvement in glucose homeostasis”. The blood glucose reduction with ob/ob and db/db mice (ob/ob and db/db mice, following 8 weeks of administration) was 35%. Further, the blood pressure entry in experiment [3] is given as “reduction of blood pressure”.

As to `O=C(O)[C@H]1CC[C@H](Oc2nc3nc(-c4ccc(N5CCCC5)cc4)c(Cl)cc3[nH]2)CC1` [Example 30], the EC50 in experiment [1] was 24 nM.

Take `O[C@@H]1CO[C@H]2[C@@H]1OC[C@H]2Oc1nc2nc(-c3ccc(-c4ccccc4)cc3)c(Cl)cc2[nH]1` [Example 159, 1,4:3,6-dianhydro-2-O-[5-(biphenyl-4-yl)-6-chloro-1H-imidazo[4,5-b]pyridin-2-yl]-D-mannitol]: in experiment [1], the Emax amounted to 373% and the EC50 turned out to be 4 nM.

As to `Cc1ccc(Oc2nc3nc(-c4ccc(N5CCCC5)cc4)c(Cl)cc3[nH]2)cc1C(=O)O` [Example 3], in experiment [1], the Emax was 681% and the EC50 was 1 nM.

In the case of `CC(C)(F)Cn1cc2c(n1)CN(c1ccc(-c3nc4nc(O[C@@H]5CO[C@H]6[C@@H]5OC[C@H]6O)[nH]c4cc3Cl)cc1)C2` [Example 172], in experiment [1], the Emax was found to be 249% and the EC50 is 2 nM.

For `CC(C)(O)[C@H]1C[C@@H](Oc2nc3nc(-c4ccc(-c5ccc(S(C)(=O)=O)cc5)cc4)c(Cl)cc3[nH]2)C1` [Example 130, 2-[cis-3-({6-chloro-5-[4′-(methylsulfonyl)biphenyl-4-yl]-1H-imidazo[4,5-b]pyridin-2-yl}oxy)cyclobutyl]propan-2-ol], in experiment [1], the Emax amounted to 440% and the EC50 was 47 nM.

Turning to `O[C@@H]1CO[C@H]2[C@@H]1OC[C@H]2Oc1nc2nc(-c3ccc(-c4ccc(-n5cccn5)cc4)cc3)c(Cl)cc2[nH]1` [Example 163, (3R,3aR,6R,6aR)-6-[[6-chloro-5-[4-(4-pyrazol-1-ylphenyl)phenyl]-1H-imidazo[4,5-b]pyridin-2-yl]oxy]-2,3,3a,5,6,6a-hexahydrofuro[3,2-b]furan-3-ol], in experiment [1], the Emax was 362% and the EC50 amounted to 0.3 nM.

`CS(=O)(=O)c1ccc(-c2ccc(-c3nc4nc(O[C@H]5CC[C@H](C(=O)O)CC5)[nH]c4cc3Cl)cc2)cc1` [Example 79, Trans-4-({6-chloro-5-[4′-(methylsulfonyl)biphenyl-4-yl]-1H-imidazo[4,5-b]pyridin-2-yl}oxy)cyclohexanecarboxylic acid]: in experiment [1], the Emax came to 661% and the EC50 is 5 nM.

Regarding `O[C@@H]1CO[C@H]2[C@@H]1OC[C@H]2Oc1nc2nc(-c3ccc(-n4cc5c(n4)CNC5)cc3)c(Cl)cc2[nH]1` [Example 177], in experiment [1], the Emax is 368% and the EC50 was 18 nM.

`CC(C)(O)Cc1cnn(-c2ccc(-c3ccc(-c4nc5nc(O[C@@H]6CO[C@H]7[C@@H]6OC[C@H]7O)[nH]c5cc4Cl)cc3)cc2)c1` [Example 190]: in experiment [1], the Emax was 374% and the EC50 was 1 nM.

Turning to `CC(C)(O)Cn1cc2c(n1)CN(c1ccc(-c3nc4nc(O[C@@H]5CO[C@H]6[C@@H]5OC[C@H]6O)[nH]c4cc3Cl)cc1)C2` [Example 171, (3R,3aR,6R,6aR)-6-[[6-chloro-5-[4-[2-(2-hydroxy-2-methyl-propyl)-4,6-dihydropyrrolo[3,4-c]pyrazol-5-yl]phenyl]-1H-imidazo[4,5-b]pyridin-2-yl]oxy]-2,3,3a,5,6,6a-hexahydrofuro[3,2-b]furan-3-ol], in experiment [1], the Emax was 252% and the 50% effective concentration (EC50) was found to be 1 nM.

`O=C(O)[C@H]1CC[C@H](Oc2nc3nc(-c4ccc(-c5ccccc5)cc4)c(Cl)cc3[nH]2)CC1` [Example 29]: in experiment [1], the Emax worked out at 798% and the EC50 was determined as 7 nM.

Consider `O[C@@H]1CO[C@H]2[C@@H]1OC[C@H]2Oc1nc2nc(-c3ccc(C#CC4CCNCC4)cc3)c(Cl)cc2[nH]1` [Example 214, (3R,3aR,6R,6aR)-6-((6-chloro-5-(4-(piperidin-4-ylethynyl)phenyl)-1H-imidazo[4,5-b]pyridin-2-yl)oxy)hexahydrofuro[3,2-b]furan-3-ol], for which, in experiment [1], the Emax is 386% and the EC50 amounted to 6 nM.

Take `O[C@@H]1CO[C@H]2[C@@H]1OC[C@H]2Oc1nc2nc(-c3ccc(-c4ccc(-n5cccn5)nc4)cc3)c(Cl)cc2[nH]1` [Example 179, (3R,3aR,6R,6aR)-6-[[6-chloro-5-[4-(6-pyrazol-1-yl-3-pyridyl)phenyl]-1H-imidazo[4,5-b]pyridin-2-yl]oxy]-2,3,3a,5,6,6a-hexahydrofuro[3,2-b]furan-3-ol]: in experiment [1], the Emax came to 292% and the EC50 is 0.9 nM.

As to `O[C@@H]1CO[C@H]2[C@@H]1OC[C@H]2Oc1nc2nc(-c3ccc(-c4ccc(-n5cncn5)cc4)cc3)c(Cl)cc2[nH]1` [Example 180, (3R,3a,6R,6aR)-6-[[6-chloro-5-[4-[4-(1,2,4-triazol-1-yl)phenyl]phenyl]-1H-imidazo[4,5-b]pyridin-2-yl]oxy]-2,3,3a,5,6,6a-hexahdrofuro[3,2-b]furan-3-ol], in experiment [1], the Emax is 350% and the EC50 was determined as 0.3 nM.

With `O[C@@H]1CO[C@@H]2C(Oc3nc4nc(-c5ccc(-c6ccc(-c7nnn[nH]7)cc6)cc5)c(Cl)cc4[nH]3)CO[C@H]12` (stereo partly drawn) [Example 207, (3R,3aR,6R,6R)-6-[[6-chloro-5-[4-[4-(1H-tetrazol-5-yl)phenyl]phenyl]-1H-imidazo[4,5-b]pyridin-2-yl]oxy]-2,3,3a,5,6,6a-hexahydrofuro[3,2-b]furan-3-ol], in experiment [1], the Emax worked out at 289% and the EC50 was 0.5 nM.

Consider `O=S(=O)(NC1CC1)n1cc2c(n1)CN(c1ccc(-c3nc4nc(O[C@@H]5CO[C@H]6[C@@H]5OC[C@H]6O)[nH]c4cc3Cl)cc1)C2` [Example 178], for which, in experiment [1], the Emax worked out at 223% and the EC50 is 1 nM.

The record behind these values is patent US8796258B2, “Cyclic azabenzimidazole derivatives useful as anti-diabetic agents” (Merck Sharp & Dohme Corp., priority 2011, dated 2014).
